Measurements taken from patent US20200299671A1, “IMMOBILIZED MULTI-ENZYMATIC HALOGENATION SYSTEM” (priority 2019, published 2020).

Key:
PltM [1] = target: T1, PltM (Pseudomonas protegens, UniProt Q4KCZ3); assay: Optimized in vitro PltM halogenation assay (PltM, SsuE, GDH), overnight overall yield by HPLC; format: biochemical; conditions: optimized in vitro conditions
Protocol: To increase production of halogenated molecules and decrease the amount of NADPH required, the above in vitro assay was optimized by using an additional enzyme, glucose dehydrogenase (GDH). […] The overall yield of halogenation products was determined for reactions run overnight for several substrates (Table 8). Conversion of the substrate to halogenated products was monitored by HPLC at λ=275-320 nm, where the absorbance of molecules is not affected by halogenation, and quantified as fraction of reaction species (%).
The time course experiments were performed in duplicate. Compound 1 was unstable under these optimized conditions, and it was not tested. The in vitro analysis of K87A mutant was performed overnight in 100 μL reaction mixture by using the compound 11 as a substrate. Wild-type PltM was used as a positive control, and no enzyme reaction was used as a negative control. In all above reactions, the compounds were extracted with EtOAc (4×100 μL) and dried under gentle air flow.
(§1) The halogenation reaction products were analyzed by HPLC or LC-MS by injecting 10 μL of each sample. The compounds were separated by Reversed-phase HPLC at the flow rate of 0.2 mL/min by using the following program: eluent A=H2O; eluent B=MeCN; gradient=2% B for 5 min, increase to 100% B over a 30 min period, stay at 100% B for 9 min, decrease to 2% B over a 1 min period, and re-equilibrate the column at 2% B for 30 min.
(§2) For HPLC analysis, the molecules were observed by absorbance at λ=275 nm as described above. As necessary, the following mass spectrometer was operated in negative and positive modes with the following parameters: For negative mode, mass range, 80-600 m/z in profile mode; temperature, 550° C. and ion spray voltage floating, −4500 V, and for positive mode, mass range, 80-600 m/z in profile mode; temperature, 550° C. and ion spray voltage floating, 4500 V. The presence of each compound was analyzed by extracted ion chromatograph (XIC) with the expected mass ±0.05 Da for Assay 1 and Assay 2 and ±0.005 Da for Assay 3 (FIGS. 2A-C, 8-13, and 17-37; Tables 3-4 and 7).

PltM [2] = target: T1, PltM; assay: In vitro PltM halogenation assay with a single halide salt, substrate profile (Assay 1a-1d), LC-MS; format: biochemical
Protocol: The halogenation assays were carried out similarly to a recently described procedure. For substrate profile determination (Assay 1), 100 μL reactions were carried out in 30 mM sodium phosphate pH 7.4. As a halide source, 200 mM of either NaF (Assay 1a), NaCl (Assay 1b), NaBr (Assay 1c), or NaI (Assay 1d) was used. To ensure that PltM is incapable of fluorinating, an additional 200 μL reaction with 300 mM NaF was run. A 200 μL reaction with 400 mM NaBr was also run to ensure no additional bromination reaction occurred. Each reaction also contained a specified substrate (0.5 mM), FAD (0.2 mM), NADPH (5 mM), PltM (5.5 μM), and SsuE (5.0 μM). The reactions were initiated by adding NADPH under N2. The reaction tubes were tightly closed to avoid contact with air. The reaction mixtures were incubated at 25° C. for 3 h prior to extraction with EtOAc (4×100 μL). The organic layer was dried by a gentle flow of air, and the residue was dissolved in MeOH to prepare 1-10 μg/mL samples for LC-MS analysis.
as §1, §2

PltM S404Y = assay: Cell-based activity assay (Assay 3), PltM S404Y; parameters: species or system E. coli BL21 (DE3); conditions: cells expressing S404Y mutant
Protocol: (§3) E. coli BL21 (DE3) cells were transformed with ppltM-pET28a, ppltMK87A-pET28a, ppltML111Y-pET28a, ppltMS404Y-pET28a, and ppltA-pET28a. The ppltA-pET28a plasmid overexpressing the halogenase PltA whose substrate is pyrrolyl-S-PltL (a peptidyl carrier protein-linked pyrrole) was used as a negative control. Five colonies from each transformant were cultured in 2×500 mL of LB medium (for ppltM-pET28a, ppltML111Y-pET28a, and ppltMS404Y-pET28a) and 1×500 mL of LB medium (for ppltMK87A-pET28a and ppltA-pET28a) with 50 μg/mL kanamycin at 37° C. and 200 rpm until attenuance of 0.2 at 600 nm. The cultures were then moved to 25° C. until attenuance of 0.5. Protein expression was induced by adding 0.2 mM IPTG to all […] flasks, and the cultures were incubated with shaking for 1 h. 12.5 μg/mL of compound 1 was added to 1×500 mL of LB medium containing ppltM-pET28a, ppltMK87A-pET28a, ppltML111Y-pET28a, ppltMS404Y-pET28a, and ppltA-pET28a. Compound 1 was not added to the three remaining flasks (negative controls). After additional incubation for 20 h, the cells were pelleted at 5,000 g for 10 min, and the supernatant was collected. The supernatant was extracted with EtOAc (3×330 mL), which was dried in vacuo. […]
(§4) The halogenation reaction products were analyzed by HPLC or LC-MS by injecting 10 μL of each sample. […]
(§5) For HPLC analysis, the molecules were observed by absorbance at λ=275 nm as described above. […]

PltA = target: T2, PltA (Pseudomonas fluorescens, UniProt Q4KCZ0); assay: Cell-based activity assay (Assay 3), PltA negative control; parameters: species or system E. coli BL21 (DE3); conditions: cultures expressing PltA (negative control)
T2 construct: expressed in transfected cells; host or cells: E. coli BL21 (DE3)
Protocol: as §3, §4, §5

PltM L111Y = assay: Cell-based activity assay (Assay 3), PltM L111Y; parameters: species or system E. coli BL21 (DE3); conditions: cells expressing L111Y mutant
Protocol: as §3, §4, §5

PltM K87A = assay: Cell-based activity assay (Assay 3), PltM K87A; parameters: species or system E. coli BL21 (DE3); conditions: cultures expressing PltM K87A
Protocol: as §3, §4, §5

PltM [3] = assay: Cell-based activity assay of PltM (Assay 3), wild-type PltM; parameters: species or system E. coli BL21 (DE3); conditions: cells expressing wild-type PltM; 1 added to culture
Protocol: as §3, §4, §5

T1 sequence (Q4KCZ3 entry or part of it): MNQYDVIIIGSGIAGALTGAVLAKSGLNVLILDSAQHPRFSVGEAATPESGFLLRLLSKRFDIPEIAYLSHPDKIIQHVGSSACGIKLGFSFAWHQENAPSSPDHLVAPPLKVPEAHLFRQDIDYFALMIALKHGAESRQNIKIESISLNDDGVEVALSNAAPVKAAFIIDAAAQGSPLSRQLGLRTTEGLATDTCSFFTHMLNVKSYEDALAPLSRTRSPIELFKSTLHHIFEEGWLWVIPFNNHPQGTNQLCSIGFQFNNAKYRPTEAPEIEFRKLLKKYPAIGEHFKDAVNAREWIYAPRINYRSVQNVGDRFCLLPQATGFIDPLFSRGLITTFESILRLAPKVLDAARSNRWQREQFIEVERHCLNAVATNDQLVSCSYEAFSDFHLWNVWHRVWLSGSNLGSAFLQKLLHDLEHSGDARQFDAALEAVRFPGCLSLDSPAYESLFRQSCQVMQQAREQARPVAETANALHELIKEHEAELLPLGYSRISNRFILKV
T2 sequence (Q4KCZ0 whole entry): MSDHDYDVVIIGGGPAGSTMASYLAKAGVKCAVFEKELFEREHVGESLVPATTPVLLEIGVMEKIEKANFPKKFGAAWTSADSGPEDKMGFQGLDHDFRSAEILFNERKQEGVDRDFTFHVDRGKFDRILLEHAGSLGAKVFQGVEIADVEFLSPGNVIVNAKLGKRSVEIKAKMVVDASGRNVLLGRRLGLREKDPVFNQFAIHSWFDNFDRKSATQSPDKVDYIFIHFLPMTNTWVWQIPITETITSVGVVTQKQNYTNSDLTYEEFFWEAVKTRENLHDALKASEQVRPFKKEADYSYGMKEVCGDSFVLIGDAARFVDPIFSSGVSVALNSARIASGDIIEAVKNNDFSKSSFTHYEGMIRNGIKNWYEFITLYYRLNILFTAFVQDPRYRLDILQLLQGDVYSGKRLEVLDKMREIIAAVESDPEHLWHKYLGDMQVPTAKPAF

Structure (SMILES): Oc1cc(O)cc(O)c1 [Compound 1, phloroglucinol]
- stability under optimized reaction conditions (PltM [1]): unstable
- bromination by PltM (products identified by LC-MS) (PltM [2]; NaBr as halide source (Assay 1c)): only mono-halogenation
- chlorination by PltM (products identified by LC-MS) (PltM [2]; NaCl as halide source (Assay 1b)): Mono- and dihalogenation
- fluorination by PltM (products identified by LC-MS) (PltM [2]; NaF as halide source (Assay 1a)): not fluorinated
- iodination by PltM (products identified by LC-MS) (PltM [2]; NaI as halide source (Assay 1d)): Mono- and dihalogenation
- halogenation in fermentation culture (PltM S404Y): product yield was significantly reduced compared to wild-type
- halogenation in fermentation culture (PltA): No halogenated product was observed
- halogenation in fermentation culture (PltM L111Y): product yield was significantly reduced compared to wild-type
- halogenation in fermentation culture (PltM K87A): No halogenated product was observed
- halogenation in fermentation culture (PltM [3]): generated mono- and dichlorinated 1
